Results from patent US6673813B2, “Methods for identifying and treating resistant tumors” (priority 1994, dated 2004).

test system: HL60/ADR cells; assay: Assay for reversal of Adriamycin resistance (cell growth, MTS); type: cell-based, human; details: test compound in addition to Adriamycin, samples diluted to 20 μM, 25 μl per 100 μl well, 72 hours
Source text: HL60/ADR is a continuous cell line, which was selected for Adriamycin™ resistance by culturing HL60, a human acute myeloblastic leukemia cell line, in increasing concentrations of Adriamycin™ until a highly resistant variant was attained. (McGrath, T., et al., Biochem. […] Marquardt, D. and Center, M. S., Cancer Res., 52: 3157, (1992); and Marquardt, D., et al., Cancer Res., 50: 1426, (1990)). […] Cells were harvested; washed twice with assay medium (same as culture media); counted; and diluted to 2×10^5 cells/ml in assay medium. Fifty μl of cells were aliquoted into wells of a 96 well tissue culture plate. One column of each 96 well plate served as a negative control and received assay medium containing no cells. Test compounds and references compounds were dissolved in dimethyl sulfoxide (DMSO) at a concentration of 5 mM. […] Assay standards were run in quadruplicate. 25 μl of 0.4% DMSO was added to four wells as a solvent control. […] The plates were incubated at 37° Centigrade for 72 hours in a humidified incubator with a 5% CO2 atmosphere. A CellTiter96 Aqueous Assay Kit (Promega) was used to measure cell viability and vitality via […] of a tetrazolium salt. The assay was performed in accordance with the vendors instructions, which required 2 ml of MTS reagent being mixed with 0.1 ml of PMS reagent and 20 μl of this solution was added to each well. The plates were incubated for 3 hours at 37° C. Absorbance was determined at 490 nm using a microtitre plate reader. The ability of a test compound to reverse the resistance of HL60/ADR cells to Adriamycin was determined by comparison of the absorbance of the wells containing a test compound in addition to Adriamycin with the absorbance of wells containing Adriamycin without a test compound. Controls were used to eliminate background and to ensure the results were not artifactual. The results of the assay are expressed as percent inhibition of cell growth.

| SMILES | % Inhibition (percent inhibition of cell growth) [%] |
| --- | --- |
| CCCc1c(OCCCCOc2cc(O)c(-c3ccc(F)cc3)cc2CC)cccc1Oc1ccccc1C(=O)O [Example 9, 2-[2-Propyl-3-[4-[2-ethyl-5-hydroxy-4-(4-fluorophenyl)-phenoxy]butoxy]phenoxy]benzoic acid sesquihydrate] | 61 |
| CCCc1c(OCCCOc2cc(O)c(-c3ccc(F)cc3)cc2CC)cccc1Oc1cccc(F)c1C(=O)[O-].[Na+] [Example 6, 2-Fluoro-6-[2-propyl-3-[3-[2-ethyl-5-hydroxy-4-(4-fluorophenyl)phenoxy]propoxy]phenoxy]benzoic acid disodium salt hydrate] | 35 |
| CCCc1c(OCCCOc2cc(O)c(-c3ccc(F)cc3)cc2CC)cccc1C(=O)c1ccccc1C(=O)O [Example 13, 2-[2-Propyl-3-[3-[2-ethyl-5-hydroxy-4-(4-fluorophenyl)phenoxy]propoxy]benzoyl]benzoic acid] | 64 |
| CCCc1c(OCCCOc2cc(O)c(-c3ccc(F)cc3)cc2CC)cccc1Oc1ccccc1C(=O)[O-].[Na+] [Example 5, 2-[2-Propyl-3-[3-[2-ethyl-4-(4-fluorophenyl)-5-hydroxyphenoxy]propoxy]phenoxy]benzoic acid sodium salt] | 23 |
| CCCCc1c(OCCCOc2cc(O)c(-c3ccc(F)cc3)cc2CC)cccc1Oc1ccccc1C(=O)O [Example 11, 2-[2-Butyl-3-[3-[2-ethyl-5-hydroxy-4-(4-fluorophenyl)phenoxy]propoxy]phenoxy]benzoic acid hydrate] | 47 |
| CCCc1c(OCCCOc2cc([O-])c(-c3ccccc3)cc2CC)cccc1Oc1ccccc1-c1nnn[n-]1.[Na+].[Na+] [Example 3, 5-Ethyl-4-[3-[2-propyl-3-[2-(2H-tetrazol-5-yl)phenoxy]phenoxy]propoxy][1,1′-biphenyl]-2-ol disodium salt sesquihydrate] | 55 |
| CCCc1c(OCCCOc2cc(O)c(-c3ccc(F)cc3)cc2CC)cccc1S(=O)(=O)c1ccccc1C(=O)O [Example 17, 2-[2-Propyl-3-[3-[2-ethyl-4-(4-fluorophenyl)-5-hydroxyphenoxy]propoxy]phenylsulfonyl]benzoic acid hydrate] | 25 |
| CCCc1c(OCCCOc2cc(O)c(-c3ccc(F)cc3)cc2CC)ccc2c1OC(C(=O)O)CC2 (stereo not drawn) [Example 1, 8-Propyl-7-[3-[4-(4-fluorophenyl)-2-ethyl-5-hydroxyphenoxy]propoxy]-3,4-dihydro-2H-1-benzopyran-2-carboxylic acid] | 54 |
| CCCc1c(OCCCOc2ccc(C(C)=O)c(OC)c2CCC)ccc2c1OC(C(=O)O)CC2 (stereo not drawn) [Example 18, 8-Propyl-7-[3-[4-acetyl-3-methoxy-2-propylphenoxy]propoxy]-3,4-dihydro-2H-1-benzopyran-2-carboxylic acid] | 67 |
| CCCc1c(OCCCOc2cc([O-])c(-c3ccccc3)cc2CC)cccc1Oc1cccc(F)c1C(=O)[O-].[Na+].[Na+] [Example 4, 2-Fluoro-6-[2-propyl-3-[3-(2-ethyl-5-hydroxy-4-phenylphenoxy)propoxy]phenoxy]benzoic acid disodium salt] | 38 |
| CCc1cc(-c2ccc(F)cc2)c(O)cc1OCCCOc1cccc(Oc2ccccc2C(=O)O)c1Cc1ccccc1 [Example 12, 2-[2-(Phenylmethyl)-3-[3-[2-ethyl-5-hydroxy-4-(4-fluorophenyl)phenoxy]propoxy]phenoxy]benzoic acid] | 62 |
| CCCc1c(OCCCOc2cc(O)c(-c3ccccc3)cc2CC)cccc1Oc1ccccc1C(=O)[O-].[Na+] [Example 2, 2-[2-Propyl-3-[3-(2-ethyl-5-hydroxy-4-phenylphenoxy)-propoxy]phenoxy]benzoic acid sodium salt hemihydrate] | 63 |
